Experimental data published in patent US20220152065A1, “METHOD OF BLOCKING OR AMELIORATING CYTOKINE RELEASE SYNDROME” (Rigel Pharmaceuticals, Inc., priority 2019, published 2022).

Key:
[1] = system: Dendritic cells + T cells + CD3/CD28 beads (IL-6 production); assay: CRS assay: IL6 ELISA of supernatant from dendritic cells + T cells + CD3/CD28 beads; assay type: cell-based; conditions: human PBMC-derived dendritic cells, 1 h compound pre-incubation, T cells with CD3/CD28 beads overnight; IL-6 in supernatant
Description: Transfer human PBMC cells (400 million) obtained from the vendor into three T-175 flasks containing 16 ml RPMI media (10% FBS) and incubate for 2 h at 37° C. After 2 h, remove floating PBL and rinse cell twice with 10 ml of media. Save PBL and media for T cell expansion. Add 16 ml of fresh RPMI media (10% FBS) containing GMCSF (100 ng/ml) and IL4 (20 ng/ml) and keep the flask in 37° C. incubator. […]
After 4 days, harvest the dendritic cells by spinning down (1000 rpm/10 min) and aspirate the media. […] To the remaining 40 μl/well of the cell culture plate add 25 μl of Cell Titer Glo reagent, incubate for 1-2 minutes on a shaker and read the plate for luminescence intensity to determine the compound cytotoxicity. […]

[2] = system: Dendritic cells + T cells + CD3/CD28 beads (IL-2 production); assay: CRS assay: IL2 ELISA of supernatant from dendritic cells + T cells + CD3/CD28 beads; assay type: cell-based; conditions: human PBMC-derived dendritic cells, 1 h compound pre-incubation, T cells with CD3/CD28 beads overnight; IL-2 in supernatant
Description: • 1. Human PBMC cells (PPA Research Group, Cat No. 15-00021) • 2. RPMI media 10% FBS • 3. GMCSF (Peprotech, Cat No. 300-03) and IL4 (Peprotech Cat No. 200-04) • 4. White clear bottom 96 well plates (Fisher, Cat No. 07-200-587, Corning #3903) • 5. Human IL-2 DuoSet ELISA (R&D Systems, Cat No. DY202) • 6. Human IL-6 DuoSet ELISA (R&D Systems, Cat No. DY206) • 7. Cell Titer Glo reagent (Promega, Cat No. G7573) • 8. Dynabeads Human T-Activator CD3/CD28 (Fisher, Cat No. 111.61D) • 9. Anti-human CD3 (BD Biosciences, Cat No. 555336) • 10. CD28, Clone CD28.2 (Beckman Coulter Inc. Cat No. IM1376) • 11. Recombinant Human IL-2 Protein (R&D Systems, Cat No. 202-IL-500)
Transfer human PBMC cells (400 million) obtained from the vendor into three T-175 flasks containing 16 ml RPMI media (10% FBS) and incubate for 2 h at 37° C. After 2 h, remove floating PBL and rinse cell twice with 10 ml of media. Save PBL and media for T cell expansion. Add 16 ml of fresh RPMI media (10% FBS) containing GMCSF (100 ng/ml) and IL4 (20 ng/ml) and keep the flask in 37° C. incubator. After 3 days, add fresh GMCSF (100 ng/ml) and IL4 (20 ng/ml) to the flask and continue the incubation.
• 1. […]
• 1. […] To the remaining 40 μl/well of the cell culture plate add 25 μl of Cell Titer Glo reagent, incubate for 1-2 minutes on a shaker and read the plate for luminescence intensity to determine the compound cytotoxicity. […]

[3] = molecular target: Fc receptor signaling (degranulation); conditions: IgE- and IgG-mediated Fc receptor activation; cited from earlier work

COc1cc(Nc2ncc(F)c(Nc3ccc4c(n3)NC(=O)C(C)(C)O4)n2)cc(OC)c1OC [Compound R406, 6-((5-fluoro-2-((3,4,5-trimethoxyphenyl)amino)pyrimidin-4-yl)amino)-2,2-dimethyl-2H-pyrido[3,2-b][1,4]oxazin-3(4H)-one]
IC50 [1]: 0.119 µM
IC50 [2]: 3.14 µM
EC50 [3]: 0.056 to 0.064 µM
